Source: patent publication US8604029B2, “2-[(2-substituted)-indolizin-3-yl]-2-oxo-acetamide derivatives as antifungal agents” (F2G Ltd British Body Corporate, priority 2006, dated 2013)
≈ marks a conversion by molar mass, not a printed value.

What follows are molecules tested on Aspergillus fumigatus (assay: MIC measurement, YAG medium). Settings: Aspergillus fumigatus, read-out: MIC A. fumigatus.
Format: cell-based
Method: Between 1 and 5 mgs of compound were accurately weighed out into a sterile Eppendorf tube. The compound was dissolved in DMSO to give a solution containing […]. Tubes were stored at −20° C. until required.
On the day of testing thawed solutions were vortex mixed to ensure homogeneity. 30 μL of solution was removed and added to 570 μL of sterile water in a separate sterile Eppendorf. The thoroughly mixed solution was used to prepare a series of doubling dilutions in water, in a deep well plate. Thirteen replicate plates were prepared using a Minitrak by aspirating 20 μL from each well into eleven clear polystyrene 96 well plates.
Spores of Aspergillus spp. (Aspergillus fumigatus [two strains], Aspergillus terreus [two strains], Aspergillus niger and Aspergillus flavus) were harvested from cultures grown on Sabarauds agar for 5 days, and resuspended in PBS/Tween 80 to approx 1×10^7 cfu/mL. Other filamentous fungi (Absidia corymbifera, Fusarium solani, Rhizomucor, Scedosporium spp., Trichophyton spp.), were grown on Sabarauds agar for 2-10 days and spores/hyphae resuspended in PBS/Tween to give approx 1×10^7 cfu/mL. Candida species (Candida albicans, Candida glabrata, Candida krusei, Candida parapsilosis and Candida tropicalis) were grown on Sabarauds agar, cells were harvested from the agar using a sterile loop and resuspended in PBS/Tween 80 to approx 1×10^6 cfu/mL. Each organism suspension was diluted in RPMI medium, containing 2% glucose and 0.135 M MOPS buffer (pH 7.0) to 0.5-2×10^4 cfu/mL for Aspergillus spp. and other filamentous fungi and 0.5-2×10^3 cfu/mL for yeast. 80 μL of an organism suspension was added to each well of the plate containing drug dilutions.
This produced MIC plates with a drug range 50-0.05 mg/L and organism inocula of 1-2×10^4 cfu/mL for Aspergillus spp. and other filamentous fungi and 1-2×10^3 cfu/mL for yeasts. All plates were incubated for 24-48 hrs at 35° C. Growth was assessed by monitoring the optical density at 485 nm for each well. The MIC of a compound is the lowest drug concentration that inhibits growth of an organism by >80% compared with a drug free control. MICs are recorded as mg/L. Other growth media can be used for susceptibility testing, and the activity of the described compounds can also be assessed in a medium comprising 1% glucose, 1% ammonium chloride and 0.5% yeast extract (YAG medium). To perform MIC tests in this medium, dilutions of compounds are prepared in microtitre plates as described above. Fungal strains to be tested are grown and harvested in an identical manner to that described above, each organism suspension is then diluted in YAG medium to 0.5-2×10^4 cfu/mL for Aspergillus spp. and other filamentous fungi and 0.5-2×10^3 cfu/mL for yeast. 80 μL of an organism suspension was added to each well of the plate containing drug dilutions. This produced MIC plates with a drug range 50-0.05 mg/L and organism inocula of 1-2×10^4 cfu/mL for Aspergillus spp. and other filamentous fungi and 1-2×10^3 cfu/mL for yeasts. All plates were incubated for 24 hrs at 35° C. Growth was assessed by monitoring the optical density at 485 nm for each well. The MIC of a compound is the lowest drug concentration that inhibits growth of an organism by >70% compared with a drug free control. MICs are recorded as mg/L. In cases where the MIC of an organism is […] mg/L the MIC is repeated using a concentration range of 0.5-0.0005 mg/L. MIC tests in YAG medium have more clear-cut endpoints and have slightly lower MICs than those performed in RPMI medium.
The following organisms were tested: Absidia corymbifera, Aspergillus flavus, Aspergillus fumigatus AF293 and AF210, Aspergillus niger, Aspergillus terreus AT4 and AT49, Candida albicans, Candida glabrata, Candida krusei, Candida parapsilosis, Candida tropicalis, Fusarium solani, Rhizomucor sp., Scedosporium apiospermum, Scedosporium prolificans, Trichophyton mentagrophytes, and Trichophyton rubrum.

CCN(CC)C(=O)Oc1cc(-c2ccc(NC(=O)C(=O)c3c(-c4ccccc4)cc4ccccn34)cc2)on1 [Example 27, Diethyl-carbamic acid-5-{4-[2-oxo-2-(2-phenyl-indolizin-3-yl)-aeetylamino]-phenyl}-isoxazol-3-yl ester] showed an MIC of under 1 µg/mL.

Same assay, conditions: Aspergillus fumigatus; YAG medium; MIC banded into grades; strain AF293; read-out: MIC A. fumigatus

Compared with Cc1cc(C)nc(N2CCN(c3ccc(NC(=O)C(=O)c4c(-c5ccccc5)cc5ccccn45)cc3)CC2)n1 [Example 44, N-{4-[4-(4,6-Dimethyl-pyrimidin-2-yl)-piperazin-1-yl]-phenyl}-2-oxo-2-(2-phenyl-indolizin-3-yl)-acetamide], Cc1cc(N2CCN(c3ccc(NC(=O)C(=O)c4c(-c5ccccc5)cc5ccccn45)cc3)CC2)cc(C)n1 [Example 52, N-{4-[4-(2,6-Dimethyl-pyridin-4-yl)-piperazin-1-yl]-phenyl}-2-oxo-2-(2-phenyl-indolizin-3-yl)-acetamide] is higher in MIC: under 1 µg/mL for the first, over 10 µg/mL for the second.

First: Cc1cc(NC(=O)C(=O)c2c(-c3ccccc3)cc3ccccn23)ccc1OCCCn1ccnc1C(C)C [Example 12, N-{4-[3-(2-Isopropyl-imidazol-1-yl)-propoxy]-3-methyl-phenyl}-2-oxo-2-(2-phenyl-indolizin-3-yl)-acetamide]
Second: CC(C)c1nccn1CCOC(=O)C(C)(C)c1ccc(NC(=O)C(=O)c2c(-c3ccccc3)cc3ccccn23)cc1 [Example 18, 2-methyl-2-{4-[2-oxo-2-(2-phenyl-indolizin-3-yl)-acetylamino]-phenyl}-propionic acid 2-(2-isopropyl-imidazol-1-yl)-ethyl ester]
The MIC of the first is lower: 1 to 10 µg/mL (≈ 1.92 to 19.2 µM) for the first, over 10 µg/mL for the second.

Compared with CC(C)c1nc(C(C)(C)c2cccc(NC(=O)C(=O)c3c(-c4ccccc4)cc4ccccn34)c2)cn1C [Example 14, N-{3-[1-(2-Isopropyl-1-methyl-1H-imidazol-4-yl)-1-methyl-ethyl]-phenyl}-2-oxo-2-(2-phenyl-indolizin-3-yl)-acetamide], Cc1cc(C)nc(N(C)CCOc2ccc(NC(=O)C(=O)c3c(-c4ccccc4)cc4ccccn34)cc2)c1 [Example 64, N-(4-{2-[(4,6-Dimethyl-pyridin-2-yl)-methyl-amino]-ethoxy}-phenyl)-2-oxo-2-(2-phenyl-indolizin-3-yl)-acetamide] is lower in MIC: over 10 µg/mL for the first, under 1 µg/mL for the second.

CS(=O)(=O)NC(=O)c1ccc(NC(=O)C(=O)c2c(-c3ccccc3)cc3ccccn23)cc1 [Example 5, N-(4-methanesulfonylaminocarbonyl-phenyl)-2-oxo-2-(2-phenyl-indolizin-3-yl)-acetamide] and O=C(Nc1ccc(N2CCS(=O)(=O)CC2)cc1)C(=O)c1c(-c2ccccc2)cc2ccccn12 [Example 1, N-[4-(1,1-Dioxo-1λ^6-thiomorpholin-4-yl)-phenyl]-2-oxo-2-(2-phenyl-indolizin-3-yl)-acetamide] cannot be ordered by MIC: over 10 µg/mL for the first, over 10 µg/mL for the second.

CC(C)(C)CN1CCN(c2ccc(NC(=O)C(=O)c3c(-c4ccccc4)cc4ccccn34)nc2)CC1 [Example 50, N-{5-[4-(2,2-Dimethyl-propyl)-piperazin-1-yl]-pyridin-2-yl}-2-oxo-2-(2-phenyl-indolizin-3-yl)-acetamide] and O=C(Nc1ccc(N2CCN(CCc3ccco3)CC2)cc1)C(=O)c1c(-c2ccccc2)cc2ccccn12 [Example 39, N-{4-[4-(2-Furan-2-yl-ethyl)-piperazin-1-yl]-phenyl}-2-oxo-2-(2-phenyl-indolizin-3-yl)-acetamide] cannot be ordered by MIC: under 1 µg/mL for the first, under 1 µg/mL for the second.

CON=C1CCN(c2ccc(NC(=O)C(=O)c3c(-c4ccccc4)cc4ccccn34)cc2)CC1 [Example 2, N-[4-(4-methoxyimino-piperidin-1-yl)-phenyl]-2-oxo-2-(2-phenyl-indolizin-3-yl)-acetamide] and Cc1cc(C)nc(N2CCN(c3ccc(NC(=O)C(=O)c4c(-c5ccccc5)cc5ccccn45)cc3)CC2)c1 [Example 21, N-{4-[4-(4,6-Dimethyl-pyridin-2-yl)-piperazin-1-yl]-phenyl}-2-oxo-2-(2-phenyl-indolizin-3-yl)-acetamide] cannot be ordered by MIC: under 1 µg/mL for the first, under 1 µg/mL for the second.

Cc1cc(C)nc(N2CCCN(c3ccc(NC(=O)C(=O)c4c(-c5ccccc5)cc5ccccn45)cc3)CC2)c1 [Example 54, N-{4-[4-(4,6-Dimethyl-pyridin-2-yl)-[1,4]diazepan-1-yl]-phenyl}-2-oxo-2-(2-phenyl-indolizin-3-yl)-acetamide] and Cc1cc(C)nc(N2CCN(c3ccc(NC(=O)C(=O)c4c(-c5ccccc5)cc5ccccn45)c(C)c3)CC2)c1 [Example 80, N-{4-[4-(4,6-Dimethyl-pyridin-2-yl)-piperazin-1-yl]-2-methyl-phenyl}-2-oxo-2-(2-phenyl-indolizin-3-yl)-acetamide] cannot be ordered by MIC: under 1 µg/mL for the first, under 1 µg/mL for the second.

First: COc1ccc(NC(=O)C(=O)c2c(C)c(-c3ccccc3)c3ccccn23)cc1 [Example 6, N-(4-methoxy-phenyl)-2-(2-methyl-1-phenyl-indolizin-3-yl)-2-oxo-acetamide]
Second: Cc1cc(C)nc(CCCCc2ccc(NC(=O)C(=O)c3c(-c4ccccc4)cc4ccccn34)cc2)c1 [Example 72, N-{4-[4-(4,6-Dimethyl-pyridin-2-yl)-butyl]-phenyl}-2-oxo-2-(2-phenyl-indolizin-3-yl)-acetamide]
The MIC of the first is higher: over 10 µg/mL for the first, under 1 µg/mL for the second.

First: C=C(C)CN1CCN(c2ccc(NC(=O)C(=O)c3c(-c4ccc(N5CCOCC5)cc4)cc4ccccn34)cc2)CC1 [Example 40, N-{4-[4-(2-Methyl-allyl)-piperazin-1-yl]-phenyl}-2-[2-(4-morpholin-4-yl-phenyl)-indolizin-3-yl]-2-oxo-acetamide]
Second: CCc1cccc(N2CCN(c3ccc(NC(=O)C(=O)c4c(-c5ccccc5)cc5ccccn45)cc3)CC2)n1 [Example 73, N-{4-[4-(6-ethyl-pyridin-2-yl)-piperazin-1-yl]-phenyl}-2-oxo-2-(2-phenyl-indolizin-3-yl)-acetamide]
The MIC of the first is higher: over 10 µg/mL for the first, under 1 µg/mL for the second.

Cc1cc(C)nc(N2CCN(c3ccc(NC(=O)C(=O)c4c(C5CCOCC5)cc5ccccn45)cc3)CC2)c1 [Example 66, N-{4-[4-(4,6-Dimethyl-pyridin-2-yl)-piperazin-1-yl]-phenyl}-2-oxo-2-[2-(tetrahydro-pyran-4-yl)-indolizin-3-yl]-acetamide] and Cc1cc(C)nc(N2CCN(c3ccc(NC(=O)C(=O)c4c(C5CCCC5)cc5ccccn45)cc3)CC2)c1 [Example 47, 2-(2-Cyclopentyl-indolizin-3-yl)-N-{4-[4-(4,6-dimethyl-pyridin-2-yl)-piperazin-1-yl]-phenyl}-2-oxo-acetamide] cannot be ordered by MIC: under 1 µg/mL for the first, under 1 µg/mL for the second.

Compared with O=C(Nc1ccc(-c2cocn2)cc1)C(=O)c1c(-c2ccc(-c3ccccc3)cc2)cc2ccccn12 [Example 85, 2-(2-Biphenyl-4-yl-indolizin-3-yl)-N-(4-oxazol-4-yl-phenyl)-2-oxo-acetamide], O=C(Nc1ccc(N2CCN(c3cccc(CCO)n3)CC2)cc1)C(=O)c1c(-c2ccccc2)cc2ccccn12 [Example 88, N-(4-{4-[6-(2-hydroxy-ethyl)-pyridin-2-yl]-piperazin-1-yl}-phenyl)-2-oxo-2-(2-phenyl-indolizin-3-yl)-acetamide] is lower in MIC: over 10 µg/mL for the first, under 1 µg/mL for the second.

Cc1cc(C)nc(N(C)CCCN(C)c2ccc(NC(=O)C(=O)c3c(-c4ccccc4)cc4ccccn34)cc2)c1 [Example 67, N-[4-({3-[(4,6-dimethyl-pyridin-2-yl)-methyl-amino]-propyl}-methyl-amino)-phenyl]-2-oxo-2-(2-phenyl-indolizin-3-yl)-acetamide] and Cc1cc(C)nc(N2CCN(c3ccc(NC(=O)C(=O)c4c(-c5ccccc5)cc5ccccn45)cc3C)CC2)c1 [Example 82, N-{4-[4-(4,6-Dimethyl-pyridin-2-yl)-piperazin-1-yl]-3-methyl-phenyl}-2-oxo-2-(2-phenyl-indolizin-3-yl)-acetamide] cannot be ordered by MIC: under 1 µg/mL for the first, under 1 µg/mL for the second.
